{
  "source": "paper PMC6395679",
  "about": "“Efficient cell penetration and delivery of peptide nucleic acids by an argininocalix[4]arene” (Scientific Reports, 2019)",
  "key": {"[1]": {"system": "U251 cells", "test": "Cell viability assay (Muse Count & Viability Kit)", "assay_type": "cell-based, human", "settings": "in contact for all the treatment time", "protocol": "(§1) The human glioma U251 cells[50] were cultured in humidified atmosphere of 5% CO2/air in RPMI-1640 medium (Gibco, Life Technologies, Monza, Italy) supplemented with 10% (v/v) fetal bovine serum (FBS, Biowest, Nuaillé, France), 100 units/mL penicillin and 100 µg/mL streptomycin (Pen-Strep, Sigma-Aldrich, Saint Louis, Missouri, USA). All PNA transfection procedures were performed under the conditions described here below. Briefly, a mixture constituted by RPMI-1640 medium containing calixarene 1 at 2.5 µM final concentration, and 2 µM PNA was prepared and incubated for 20 minutes at room temperature, without serum. After the incubation, 10% (v/v) of FBS was added. Cell culture medium was removed and replaced with the transfection mixture, which was maintained in contact with cells until the end of the treatment.\n(§2) Cell viability after the transfection with 1 was evaluated with Muse Count & Viability Kit (Millipore, Billerica, Massachusetts, USA), using Muse Cell Analyser (Millipore, Billerica, Massachusetts, USA). To perform analysis, 50 µL of suspension cells were added to 225 µL of Muse Count & Viability Reagent, the solution was incubated at room temperature for 5 minutes, protected from the light and then 1 × 10^3 events were analysed using Muse Cell Analyser (Millipore, Billerica, Massachusetts, USA). The effects on cell growth were studied by determining the cell number/ml using a Z2 Coulter Counter (Coulter Electronics, Hialeah, FL, USA). The effects of calixarene 1 on cell viability, cell growth and cell morphology were compared to those of Lipofectamine RNAiMAX (Invitrogen, Monza, Italy).\nOne of the major issues associated with the use of commercial available vehicles is the high toxicity of these compounds. For such reason 1 was first evaluated for its effect on cell viability when used to transfect molecules. […] Viability profile was determined at three different time points, 24, 48 and 72 hours after transfection, with three different concentrations of […], 1.25, 2.5, and 10 μM. […]"}, "[2]": {"system": "U251 cells", "test": "Effects on cell growth (cell number/ml, Z2 Coulter Counter)", "assay_type": "cell-based, human", "settings": "after 72 hours of cell culture, effect of 1 significant only at 10 µM, lipofectamine within 0.5–12 μl/ml", "protocol": "as §2\n(§3) Comparison was done with the effects of lipofectamine analyzed after 72 hours of cell culture. […] These findings are in agreement with the cell morphology profile shown in Fig. 2(D–F) and determined by microscopic inspection after 72 hours of cell culture in the presence of 2.5 µM calixarene 1 (Fig. 2E), 3μL/mL lipofectamine (Fig. 2F) or in the absence of both the delivery systems (Fig. 2D)."}, "[3]": {"system": "Fl-a221PNA", "test": "Fluorescence titration of Fl-a221PNA with calixarene 1", "assay_type": "binding", "settings": "Fl-a221PNA 2 μM, HEPES 16 mM, NaCl 40 mM, pH 7.4, λex = 494 nm, 1 added stepwise up to 9.9 μM", "protocol": "For a fast evaluation of the interaction with PNA, fluorescently labelled Fl-a221PNA (Fl: Fluorescein) was diluted to a final concentration of 2 μM in buffer (HEPES 16 mM, NaCl 40 mM, pH 7.4) and placed in a fluorescence cuvette; to this, a concentrated solution of the argininocalix[4]arene 1 (100 μM in EtOH/H2O/DMSO = 2/2/1 v/v/v) was added stepwise (up to a final concentration of 9.9 μM of calixarene), and changes in the fluorescein emission intensity (with λex = 494 nm) were measured after each addition. Correction for lamp fluctuation was performed by measuring the fluorescence of a standard 2 μM fluorescein solution after each spectra; this correction and that for dilution were performed using the formula: Fi, corr = Fi,obs × (Fin /Fi) × (Vi /Vin), where Fi: intensity at the ith point and Fin: initial intensity of the fluorescein standard, Vi: total volume at the ith point and Vin: initial volume.\nIn order to rule out that the observed delivery was solely due to permeabilization of cells caused by the argininocalixarene, without interaction between the carrier and the PNA, Fl-a221PNA was titrated in vitro in buffer by adding 1 and measuring the changes in fluorescence emission (Fig. 4). […] A slight shift of the fluorescence maximum (from 519 to 523 nm) was also observed, consistent with a more polar microenvironment generated by the cationic calixarene."}, "[4]": {"system": "U251 cells", "test": "Cell morphology by microscopic inspection", "assay_type": "cell-based, human", "settings": "72 hours of cell culture, 2.5 µM calixarene 1 or 3μL/mL lipofectamine", "protocol": "as §2, §3"}, "[5]": {"system": "miR-221-3p", "test": "RT-qPCR hybridization to miR-221-3p probe", "assay_type": "cell-based, human", "settings": "U251 cells, 48 hours, calixarene 1 at 2.5 μM, PNAs at 2 μM", "protocol": "as §1, with “Cell culture medium was removed and replaced with the transfection mixture, which was maintained in contact with cells until the end of the treatment.” left out\nFor miRNAs quantification, obtained RNA was reverse transcribed using TaqMan MicroRNA Reverse Transcription Kit (Applied Biosystems, Foster City, CA, USA) and miRNA specific stem-loop primer (hsa-miR-96-5p, ID: 000186; hsa-miR-155-5p, ID: 002623; hsa-miR-210-3p, ID: 000512; hsa-miR-221-3p, ID: 000524). Reverse transcription quantitative polymerase-chain reaction (RT-qPCR) was performed according to the manufacturer’s protocols and as indicated elsewhere. […] The relative expression was calculated using the comparative cycle threshold method (ΔΔCT) and U6 snRNA (hsa U6 snRNA, ID:001973) and hsa-let-7c (hsa-let-7c, ID:000379) as endogenous controls. […]"}},
  "data": [
    {"substance": "tetraargininocalix[4]arene [compound 1]", "values": [
      {"measurement": "percentage of total live cells", "setting": "[1]; 1.25 µM of 1, 24 hours after the transfection", "result": "no differences"},
      {"measurement": "percentage of total live cells", "setting": "[1]; 2.5 µM of 1, 24 hours after the transfection", "result": "no differences"},
      {"measurement": "live cells percentage", "setting": "[1]; 10 µM of 1, 24 hours after the transfection", "result": "slight decrease"},
      {"measurement": "effect on cell proliferation (cell growth)", "setting": "[2]", "result": "minor"},
      {"measurement": "concentration of carrier at saturation of fluorescence quenching", "setting": "[3]", "result": 2.5, "unit": "µM"},
      {"measurement": "effect on cell morphology", "setting": "[4]", "result": "does not affect cell morphology"},
      {"measurement": "effect on miR-221-3p hybridization signal", "setting": "[5]", "result": "no effects"}
    ]}
  ]
}
